Measurements from PubChem BioAssay AID2060609 (Molecular Pharmacology Branch, DTP, NCI, 2025).

Tested on: 855422-203-R-J1-PDC complex spheroids, viability
Experiment: Anticancer human tumor 855422-203-R-J1-PDC patient-derived bladder carcinoma cell line growth inhibition [CLK]
Conditions: for IC50: curve of first compound; for viability, T/C: stronger effect = lower value; active means viability on the fitted dose curve at most 10% of control; inactive means the rest
In short: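 Patient-derived tumor cells grown as complex spheroids with HUVEC endothelial cells and mesenchymal stem cells, treated with drug combinations. Concentrations descend in half-log steps from near clinical Cmax, or from 10 microM if Cmax unknown.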

[1] = second compound 0.0316 µM, first compound 0.0316 µM
[2] = second compound 0.0316 µM, first compound 0.1 µM
[3] = second compound 0.1 µM, first compound 0.0316 µM
[4] = second compound 0.1 µM, first compound 0.1 µM
[5] = second compound 0.316 µM, first compound 0.0316 µM
[6] = second compound 0.316 µM, first compound 0.1 µM
[7] = second compound 1 µM, first compound 0.0316 µM
[8] = second compound 1 µM, first compound 0.1 µM
[9] = second compound 3.16 µM, first compound 0.0316 µM
[10] = second compound 3.16 µM, first compound 0.1 µM
[11] = second compound 10 µM, first compound 0.0316 µM
[12] = second compound 10 µM, first compound 0.1 µM
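Further: spheroids exposed to drugs for seven days before readout.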
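Wherever viability, T/C is given: 100% = DMSO vehicle control wells.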

C#Cc1c(F)ccc2cc(O)cc(-c3ncc4c(N5CC6CCC(C5)N6)nc(OCC56CCCN5CC(F)C6)nc4c3F)c12 (centres undefined) + CN1CCN(c2cc(C(=O)Nc3cc4cc(-c5cnn(C)c5)ccc4cn3)ccn2)CC1
active: viability, T/C [7] 0.86% | viability, T/C [8] 0.58% | viability, T/C (second compound 1 µM, first compound 0.316 µM) 0.22% | viability, T/C (second compound 1 µM, first compound 1 µM) 0.24% | viability, T/C (second compound 1 µM, first compound 3.16 µM) 0.22% | viability, T/C (second compound 1 µM, first compound 10 µM) 0.17% | viability, T/C [9] 0.39% | viability, T/C [10] 0.72% | viability, T/C (second compound 3.16 µM, first compound 0.316 µM) 0.49% | viability, T/C (second compound 3.16 µM, first compound 1 µM) 0.38% | viability, T/C (second compound 3.16 µM, first compound 3.16 µM) 1.64% | viability, T/C (second compound 3.16 µM, first compound 10 µM) 0.18% | viability, T/C [11] 0.42% | viability, T/C [12] 0.85% | viability, T/C (second compound 10 µM, first compound 0.316 µM) 0.3% | viability, T/C (second compound 10 µM, first compound 1 µM) 0.35% | viability, T/C (second compound 10 µM, first compound 3.16 µM) 0.3% | viability, T/C (second compound 10 µM, first compound 10 µM) 0.2%
> 10000 nM: IC50 (second compound 0.0316 µM) | IC50 (second compound 0.1 µM)
inactive: viability, T/C [1] 106% | viability, T/C [2] 98.8% | viability, T/C (second compound 0.0316 µM, first compound 0.316 µM) 119% | viability, T/C (second compound 0.0316 µM, first compound 1 µM) 98.8% | viability, T/C (second compound 0.0316 µM, first compound 3.16 µM) 104% | viability, T/C (second compound 0.0316 µM, first compound 10 µM) 113% | viability, T/C [3] 84.4% | viability, T/C [4] 84.4% | viability, T/C (second compound 0.1 µM, first compound 0.316 µM) 85.1% | viability, T/C (second compound 0.1 µM, first compound 1 µM) 89.2% | viability, T/C (second compound 0.1 µM, first compound 3.16 µM) 93.3% | viability, T/C (second compound 0.1 µM, first compound 10 µM) 81.9% | viability, T/C [5] 13% | viability, T/C [6] 12.4% | viability, T/C (second compound 0.316 µM, first compound 0.316 µM) 14.8% | viability, T/C (second compound 0.316 µM, first compound 1 µM) 15.1% | viability, T/C (second compound 0.316 µM, first compound 3.16 µM) 14.9% | viability, T/C (second compound 0.316 µM, first compound 10 µM) 8.68%
< 31.6 nM: IC50 (second compound 0.316 µM) | IC50 (second compound 1 µM) | IC50 (second compound 3.16 µM) | IC50 (second compound 10 µM)

Cn1ncnc1[C@H]1c2n[nH]c(=O)c3cc(F)cc(c23)N[C@@H]1c1ccc(F)cc1 + CN1CCN(c2cc(C(=O)Nc3cc4cc(-c5cnn(C)c5)ccc4cn3)ccn2)CC1
> 100 nM: IC50 (second compound 0.0316 µM) | IC50 (second compound 0.1 µM)
inactive: viability, T/C (second compound 0.0316 µM, first compound 0.000316 µM) 97.4% | viability, T/C (second compound 0.0316 µM, first compound 0.001 µM) 101% | viability, T/C (second compound 0.0316 µM, first compound 0.00316 µM) 110% | viability, T/C (second compound 0.0316 µM, first compound 0.01 µM) 104% | viability, T/C [1] 113% | viability, T/C [2] 104% | viability, T/C (second compound 0.1 µM, first compound 0.000316 µM) 79.5% | viability, T/C (second compound 0.1 µM, first compound 0.001 µM) 92.6% | viability, T/C (second compound 0.1 µM, first compound 0.00316 µM) 103% | viability, T/C (second compound 0.1 µM, first compound 0.01 µM) 87.4% | viability, T/C [3] 95.9% | viability, T/C [4] 83.8%
< 0.316 nM: IC50 (second compound 0.316 µM) | IC50 (second compound 1 µM) | IC50 (second compound 3.16 µM) | IC50 (second compound 10 µM)
active: viability, T/C (second compound 0.316 µM, first compound 0.000316 µM) 5.88% | viability, T/C (second compound 0.316 µM, first compound 0.001 µM) 9.73% | viability, T/C (second compound 0.316 µM, first compound 0.00316 µM) 10.4% | viability, T/C (second compound 0.316 µM, first compound 0.01 µM) 9.1% | viability, T/C [5] 9.56% | viability, T/C [6] 8.15% | viability, T/C (second compound 1 µM, first compound 0.000316 µM) 0.17% | viability, T/C (second compound 1 µM, first compound 0.001 µM) 0.23% | viability, T/C (second compound 1 µM, first compound 0.00316 µM) 0.15% | viability, T/C (second compound 1 µM, first compound 0.01 µM) 0.12% | viability, T/C [7] 4.07% | viability, T/C [8] 0.15% | viability, T/C (second compound 3.16 µM, first compound 0.000316 µM) 0.48% | viability, T/C (second compound 3.16 µM, first compound 0.001 µM) 0.5% | viability, T/C (second compound 3.16 µM, first compound 0.00316 µM) 0.41% | viability, T/C (second compound 3.16 µM, first compound 0.01 µM) 0.33% | viability, T/C [9] 0.23% | viability, T/C [10] 0.84% | viability, T/C (second compound 10 µM, first compound 0.000316 µM) 0.23% | viability, T/C (second compound 10 µM, first compound 0.001 µM) 1.99% | viability, T/C (second compound 10 µM, first compound 0.00316 µM) 0.17% | viability, T/C (second compound 10 µM, first compound 0.01 µM) 0.22% | viability, T/C [11] 0.17% | viability, T/C [12] 0.18%
